In patent US20130045484A1, “METHODS AND KITS FOR DETERMINING THE TOXICITY OF AN AGENT” (priority 2010, published 2013):
Where a name gives a salt, the structure may show the parent alone. Read-outs that look alike come from different tables or passages of the source.

How the values were obtained:
[1] = test system: p53R2 (RE)
Procedure: Constructs were transiently transfected into human HEK 293 cells using a lipid-based commercially available reagent (FuGENE HD Transfection Reagent, Roche Applied Science). Transfections were carried out following the manufacturer's instructions. Briefly, freshly passaged cells (20,000/well) were dispensed into Greiner Bio-One tissue-culture treated μ-clear (clear base), white, sterile, 96-well cluster plates and incubated overnight (37° C., 95% humidity, 5% CO2) in antibiotic-free media. Cells were transfected (100 ng DNA/well; 5 μl transfection complex/well) with pGL4.70 [hRLuc], p53R2 (RE) pGL4.70 [hRLuc], pGL4.70 MinP [hRLuc], or p53R2 (RE) pGL4.70 MinP [hRLuc] for 24 h, in antibiotic-free media. Several FuGENE HD Transfection Reagent: DNA ratios (3:2-8:2 in the final complex) were evaluated in order to determine the optimal level of transient transfection.
Renilla luciferase activity was measured using the ViviRen Luciferase Live Cell Substrate following the Manufacturer's instructions. Briefly, the ViviRen substrate (60 mM; 20 μl) was diluted 1:50 with complete EMEM at room temperature. 10 μl was added to each culture well (to give a final concentration of 60 μM in each well containing cells to be tested). Microtitre plates were incubated for two minutes at room temperature before measuring luminescence on a Tecan Ultra (Tecan Corporation) in luminescence mode, integrating for 100 ms. Alternatively luminescence can be measured on a LEADseeker multi-modality instrument in luminescence mode (GE Healthcare).

[2] = test system: superoxide dismutase; assay: Superoxide Dismutase (SOD) (Oxidative Stress) Assay; assay type: cell-based, human; settings: mean superoxide dismutase response (450 nm) ÷ mean ATP response × 10^7; HEK 293; mannitol 1 mg/ml, doxorubicin 1 μg/ml, MMS 50 μg/ml, phenformin 250 μg/ml
Procedure: The assay was conducted using the same cell containing sample(s) as the p53R2 Renilla Luciferase Reporter Gene and the Firefly Luciferase Bioluminescent ATP assays. The assays were performed in 96-well cluster plates.
On completion of ATP quantification, SOD was measured on each cellular sample following the SOD assay kit manufacturer's instructions. Briefly, the assay method is based on a water-soluble tetrazolium salt, WST-1 (2-(4-Iodophenyl)-3-(4-nitrophenyl)-5-(2,4-disulfophenyl)-2H-tetrazolium, monosodium salt) that produces a colourimetric formazan dye upon reduction with a superoxide anion which can be measured spectrophotometrically. The rate of the reduction with the superoxide anion is linearly related to […] xanthine oxidase (XO) activity. Thus, cellular samples (20 μl) were added to a reaction mixture (220 μl) containing WST-1 and XO and incubated for 20 mins at 37° C. Absorbance was measured at 450 nm using a 96-well microtitre plate reader.

[3] = test system: caspase-3; assay: Caspase-3 (apoptosis) Assay; assay type: cell-based, human; settings: for Mean Apoptotic Index: mean Caspase-3 response (405 nm) ÷ mean ATP response × 10^8, mannitol 1 mg/ml, doxorubicin 1 μg/ml, MMS 50 μg/ml, phenformin 250 μg/ml
Procedure: The assay was carried out using the same cell containing sample(s) as the p53R2 Renilla Luciferase Reporter Gene, the Firefly Luciferase Bioluminescent ATP and the superoxide assays. Once again, all of the assays were performed in 96-well cluster plates. Activation of caspase-3 plays a central role in the execution-phase of apoptosis. Thus, the caspase-3 assay will provide useful information on the mechanism of cellular toxicity. Following SOD measurement, caspase-3 was measured on each cellular sample in accordance with the Caspase-3 Assay Kit manufacturer's instructions. Briefly, the colorimetric assay is based on the hydrolysis of the peptide substrate acetyl-Asp-Glu-Val-Asp p-nitroanilide (Ac-DEVD-pNA) by caspase-3, resulting in the release of the p-nitroaniline (pNA) moiety which can be measured at 405 nm.
For the assay, cellular sample lysates (5 μl) were added to a reaction mixture containing caspase-3 substrate (Ac-DEVD-pNA, 95 μl) and samples were incubated for 2 h at 37° C. Absorbance was measured at 405 nm using a 96-well microtitre plate reader.

[4] = test system: HEK 293 cells; assay: Firefly Luciferase Bioluminescent ATP cell viability assay; assay type: cell-based, human; settings: for ATP response (cytotoxicity): phenformin 250 μg/ml, MMS 50 μg/ml, doxorubicin 1 μg/ml
Procedure: The assay was carried out in 96-well cluster plates on the same cell containing sample(s) as the p53R2 Renilla Luciferase Reporter Gene Assay. Traditionally bioluminescent ATP quantification methods use firefly luciferase to quantify ATP in the presence of inorganic magnesium ions and the substrate luciferin. The ATP assay described here uses a recombinant luciferase from a gene isolated from the Pennsylvania Firefly (Photuris pennsylvania). Following Renilla luciferase gene reporter activity quantification, firefly luciferase activity was measured in each well using the Cell-Titer Glo Luciferase ATP Quantification Assay Kit in accordance with the kit manufacturer's instructions. Briefly, the enzyme substrate was equilibrated to room temperature and reconstituted with the assay buffer. 100 μl of this reagent was added to cells which quenched the Renilla luciferase reaction and liberated the cellular contents by cellular lysis. […] It is based on the quantitative measurement of ATP which indicates the absolute number of metabolically active cells.

[5] = test system: Salmonella; settings: McCann et al., 1975, PNAS 72, 5135-5139; cited from earlier work
[6] = FIG. 16, apoptosis values alone, HEK 293

## OC[C@@H](O)[C@@H](O)[C@H](O)[C@H](O)CO [Mannitol, mannitol]
[1]
  induction of Renilla luciferase: no induction
[2]
  Mean Stress Index: 1.22
[3]; HEK 293
  Mean Apoptotic Index: 1.04

## COS(C)(=O)=O [Methylmethane sulfonate, methylmethane sulfonate]
[1]
  induction of Renilla luciferase: less induction
[4]
  cytotoxicity based upon ATP levels: not cytotoxic
[3]
  caspase 3 activities: comparable
[5]
  genotoxicity characterization: moderately

## COc1cccc2c1C(=O)c1c(O)c3c(c(O)c1C2=O)C[C@@](O)(C(=O)CO)C[C@@H]3O[C@H]1C[C@H](N)[C@H](O)[C@H](C)O1 [Doxorubicin, doxorubicin hydrochloride]
[1]
  induction of Renilla luciferase: significant induction
[4]; FIG. 10e, 8:2 transfection
  ATP response (cytotoxicity): no reduction
[4]; FIG. 11e, 7:2 transfection
  ATP response (cytotoxicity): no reduction
[4]; FIGS. 10 and 11
  cytotoxicity based upon ATP levels: not cytotoxic
[2]
  Mean Stress Index: 0.96
[3]; [6]
  caspase 3 activities: comparable
[3]; HEK 293
  Mean Apoptotic Index: 3.43
[5]
  genotoxicity characterization: highly

## [H]/N=C(/N)N/C(=N/[H])NCCc1ccccc1 [Phenformin, phenformin hydrochloride]
[1]
  induction of Renilla luciferase: no induction
[3]; [6]
  caspase 3 activities: comparable
